Target: T1, Human TRPA1 expressing CHO cells (Homo sapiens, UniProt O75762)
T1 construct: expressed in transfected cells; host or cells: CHO cells (under G-418 selection)
Test: 45Calcium uptake assay: inhibition of AITC induced cellular uptake of radioactive calcium
Format: cell-based
Details: AITC 30 μM; for inhibition at 1 µM: 1.0 μM test compound, read-out: Percentage inhibition at 1.0 μM; for inhibition at 1 µM / inhibition at 10 µM / IC50: human TRPA1 CHO cells; for inhibition at 10 µM: 10.0 μM test compound, read-out: Percentage inhibition at 10.0 μM; for IC50: read-out: IC50 value (range)
Experimental: The illustrative examples of the present invention are screened for TRPA1 activity according to a modified procedure described in (a) Tóth, A. et al. Life Sciences (2003), 73, 487-498. ([…]. et al. Proc. Natl. Acad. Sci. U.S.A., (2007), 104, 13525-13530. The screening of the compounds can be carried out by other methods and procedures known to persons skilled in the art. Screening for TRPA1 Antagonist Using the ^45Calcium Uptake Assay The inhibition of TRPA1 receptor activation was measured as inhibition of allyl isothiocyanate (AITC) induced cellular uptake of radioactive calcium. […] Final concentration of DMSO in the reaction was 0.5% (v/v). […] Cells were seeded 24 h prior to the assay in 96 well plates so as to get 50,000 cells per well on the day of experiment. Cells were treated with test compounds for 10 min followed by addition of AITC at a final concentration of 30 μM and 5 μCi/ml ^45Ca^+2 for 3 min. […] Radioactivity in the lysate was measured in Packard Top count after addition of liquid scintillant. Concentration response curves were plotted as a % of maximal response obtained in the absence of test antagonist. IC50 value was calculated from concentration response curve by nonlinear regression analysis using GraphPad PRISM software.

T1 sequence (O75762 whole entry): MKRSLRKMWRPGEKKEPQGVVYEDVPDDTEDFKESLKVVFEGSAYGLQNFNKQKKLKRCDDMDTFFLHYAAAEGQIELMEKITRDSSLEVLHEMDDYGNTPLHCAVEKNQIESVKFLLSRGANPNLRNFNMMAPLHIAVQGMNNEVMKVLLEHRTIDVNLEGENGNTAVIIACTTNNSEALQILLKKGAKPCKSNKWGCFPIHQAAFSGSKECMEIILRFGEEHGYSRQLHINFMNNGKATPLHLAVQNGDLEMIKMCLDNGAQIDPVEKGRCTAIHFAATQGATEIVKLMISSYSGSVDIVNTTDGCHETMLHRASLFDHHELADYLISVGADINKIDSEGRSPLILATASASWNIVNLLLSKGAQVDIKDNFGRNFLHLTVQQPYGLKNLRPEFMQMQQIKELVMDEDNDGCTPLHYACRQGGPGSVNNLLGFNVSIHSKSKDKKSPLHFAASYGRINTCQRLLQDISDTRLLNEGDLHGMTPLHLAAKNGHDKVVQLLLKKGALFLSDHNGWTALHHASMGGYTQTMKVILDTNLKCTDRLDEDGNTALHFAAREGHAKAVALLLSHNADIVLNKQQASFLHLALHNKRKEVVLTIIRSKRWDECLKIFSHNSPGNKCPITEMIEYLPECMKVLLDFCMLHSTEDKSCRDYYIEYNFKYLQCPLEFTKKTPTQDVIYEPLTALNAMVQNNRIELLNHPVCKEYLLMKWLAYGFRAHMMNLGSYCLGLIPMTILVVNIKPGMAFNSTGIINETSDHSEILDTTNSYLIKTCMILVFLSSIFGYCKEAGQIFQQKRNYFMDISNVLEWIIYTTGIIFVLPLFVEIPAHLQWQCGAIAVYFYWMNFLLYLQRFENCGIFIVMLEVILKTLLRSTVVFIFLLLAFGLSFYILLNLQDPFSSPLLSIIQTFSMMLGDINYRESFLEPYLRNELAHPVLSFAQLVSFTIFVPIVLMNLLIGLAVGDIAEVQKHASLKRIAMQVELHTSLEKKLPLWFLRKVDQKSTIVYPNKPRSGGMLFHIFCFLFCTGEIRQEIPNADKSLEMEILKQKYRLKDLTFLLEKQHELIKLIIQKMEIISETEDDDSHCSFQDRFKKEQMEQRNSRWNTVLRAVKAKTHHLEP

Structure (SMILES)	inhibition at 1 µM	inhibition at 10 µM	IC50	inhibition at 3 µM (CHO, 3 μM test compound (printed in the 10.0 μM column), read-out: Percentage inhibition (3 μM))
Cn1c(=O)c2c(CC(=O)Nc3nc(-c4ccc(OCC(F)(F)F)c(F)c4)cs3)cccc2n(C)c1=O [Example 59, N1-{4-[3-fluoro-4-(2,2,2-trifluoroethoxy)phenyl]-1,3-thiazol-2yl}-2-(1,3-dimethyl-2,4-dioxo-1,2,3,4-tetrahydro-5-quinazolinyl)acetamide]	96.8%	100%	< 50 nM	
Cn1c(=O)n(CC2CC2)c(=O)c2c(CC(=O)Nc3nc(-c4ccc(C(F)(F)F)c(F)c4)cs3)cccc21 [Example 61, N1-[4-(3-Fluoro-4-trifluoromethylphenyl)-1,3-thiazol-2-yl]-2-(1-methyl-3-cyclopropyl-methyl-2,4-dioxo-1,2,3,4-tetrahydro-5-quinazolinyl)acetamide]	25%	60.4%		
Cn1c(=O)c2c(CC(=O)Nc3nc(-c4c(F)ccc(F)c4F)cs3)cccc2n(C)c1=O [Example 62]	59%	94.2%	> 100 nM	
Cn1c(=O)c2c(CC(=O)Nc3nc(-c4cc(F)c(Cl)cc4Cl)cs3)cccc2n(C)c1=O [Example 63, N1-[4-(2,4-Dichloro-5-fluorophenyl)-1,3-thiazol-2-yl]-2-(1,3-dimethyl-2,4-dioxo-1,2,3,4-tetrahydro-5-quinazolinyl)acetamide]	87.1%	96.9%	> 100 nM	
Cn1c(=O)c2c(CC(=O)Nc3nc(-c4ccc(C(F)(F)F)c(F)c4F)cs3)cccc2n(C)c1=O [Example 65, N1-[4-(2,3-Difluoro-4-trifluormethylphenyl)-1,3-thiazol-2-yl]-2-(1,3-dimethyl-2,4-dioxo-1,2,3,4-tetrahydro-5-quinazolinyl)acetamide]	99.4%	99.6%	< 50 nM	
Cn1c(=O)c2c(CC(=O)Nc3nc(-c4cc(F)c(C(F)(F)F)c(F)c4)cs3)cccc2n(C)c1=O [Example 66, N1-{4-[3,5-Difluoro-4-trifluoromethylphenyl]-1,3-thiazol-2-yl}-2-(1,3-dimethyl-2,4-dioxo-1,2,3,4-tetrahydro-5-quinazolinyl)acetamide]	100%	100%	< 50 nM	
Cn1c(=O)c2c(CC(=O)Nc3nc(-c4ccc(F)c(C(F)(F)F)c4F)cs3)cccc2n(C)c1=O [Example 67, N1-{4-[2,4-Difluoro-3-trifluoromethylphenyl]-1,3-thiazol-2-yl}-2-(1,3-dimethyl-2,4-dioxo-1,2,3,4-tetrahydro-5-quinazolinyl)acetamide]	97.8%		< 50 nM	99.5%
Cn1c(=O)c2c(CC(=O)Nc3nc(-c4cc(F)c(OC(F)F)c(F)c4)cs3)cccc2n(C)c1=O [Example 69]	99.9%	100%	< 50 nM	
Cn1c(=O)c2c(CC(=O)Nc3nc(-c4cc(F)c(OCC5CC5)c(F)c4)cs3)cccc2n(C)c1=O [Example 72, N1-[4-(4-Cyclopropylmethoxy-3,5-difluorophenyl)-1,3-thiazol-2-yl]-2-(1,3-dimethyl-2,4-dioxo-1,2,3,4-tetrahydroquinazolin-5-yl)acetamide]	95.4%	96.5%	< 50 nM	
Cn1c(=O)c2c(CC(=O)Nc3nc(-c4c[nH]c5ccccc45)cs3)cccc2n(C)c1=O [Example 73, N1-[4-(1H-3-Indolyl)-1,3-thiazol-2-yl]-2-(1,3-dimethyl-2,4-dioxo-1,2,3,4-tetrahydro-5-quinazolinyl)acetamide]	32.5%	72.6%		
Cn1c(=O)c2c(CC(=O)Nc3nc(-c4cn(C)c5ccccc45)cs3)cccc2n(C)c1=O [Example 74]	96.3%	97.7%	> 100 nM	
Cn1c(=O)c2c(CC(=O)Nc3nc4ccccc4s3)cccc2n(C)c1=O [Example 75]	5.6%	30.5%		
Cn1c(=O)c2c(CC(=O)Nc3nc4ccc(F)cc4s3)cccc2n(C)c1=O [Example 76, N1-[6-Fluorobenzo[d][1,3]thiazol-2-yl)-2-(1,3-dimethyl-2,4-dioxo-1,2,3,4-tetrahydro-5-quinazolinyl)acetamide]	33%	28.5%		
Cn1c(=O)c2c(CC(=O)Nc3ccn(-c4ccc(Cl)cc4)n3)cccc2n(C)c1=O [Example 80, N1-[1-(4-Chlorophenyl)-1H,3-pyrazolyl]-2-(1,3-dimethyl-2,4-dioxo-1,2,3,4-tetrahydro-5-quinazolinyl)acetamide]	97.2%	99.7%	50.1 to 100 nM	

Next, values leading:

inhibition at 1 µM	inhibition at 10 µM	IC50	inhibition at 3 µM (CHO, 3 μM test compound (printed in the 10.0 μM column), read-out: Percentage inhibition (3 μM))	Structure (SMILES)
1.31%	41.3%			Cn1c(=O)c2c(CC(=O)Nc3nc(-c4ccc(OCC5CC5)c(F)c4)cs3)cccc2n(C)c1=O [Example 60, N1-[4-(4-Cyclopropylmethoxy-3-fluorophenyl)-1,3-thiazol-2yl]-2-(1,3-dimethyl-2,4-dioxo-1,2,3,4-tetrahydro-5-quinazolinyl)acetamide]
11.5%	27%			Cn1c(=O)c2c(CC(=O)Nc3nc(-c4c(Cl)ccc(F)c4Cl)cs3)cccc2n(C)c1=O [Example 64, N1-[4-(2,6Dichloro-3-fluorophenyl)-1,3-thiazol-2-yl]-2-(1,3-dimethyl-2,4-dioxo-1,2,3,4-tetrahydro-5-quinazolinyl)acetamide]
84.6%	98.6%	> 100 nM		Cn1c(=O)c2c(CC(=O)Nc3nc(-c4c(F)ccc(C(F)(F)F)c4F)cs3)cccc2n(C)c1=O [Example 68, N1-{4-[2,6-Difluoro-3-trifluoromethylphenyl]-1,3-thiazol-2-yl}-2-(1,3-dimethyl-2,4-dioxo-1,2,3,4-tetrahydro-5-quinazolinyl)acetamide]
100%	99.9%	< 50 nM		Cn1c(=O)c2c(CC(=O)Nc3nc(-c4cc(F)c(OCC(F)(F)F)c(F)c4)cs3)cccc2n(C)c1=O [Example 70, N1-{4-[3,5-Difluoro-4-(2,2,2-trifluoroethoxy)phenyl]-1,3-thiazol-2-yl}-2-(1,3-dimethyl-2,4-dioxo-1,2,3,4-tetrahydro-5-quinazolinyl)acetamide]
83.6%	98.9%	< 50 nM		COc1c(F)cc(-c2csc(NC(=O)Cc3cccc4c3c(=O)n(C)c(=O)n4C)n2)cc1F [Example 71, N1-[4-(3,5-Difluoro-4-methoxyphenyl)-1,3-thiazol-2-yl]-2-(1,3-dimethyl-2,4-dioxo-1,2,3,4-tetrahydroquinazolin-5-yl)acetamide]
49.1%	95.5%			Cc1cc2nc(NC(=O)Cc3cccc4c3c(=O)n(C)c(=O)n4C)sc2cc1C [Example 77, N1-(5,6-Dimethylbenzo[d][1,3]thiazol-2-yl)-2-(1,3-dimethyl-2,4-dioxo-1,2,3,4-tetrahydro-5-quinazolinyl)acetamide]
59.8%	90.3%	> 100 nM		Cn1c(=O)c2c(CC(=O)Nc3nc4c(s3)CCc3cc(Cl)ccc3-4)cccc2n(C)c1=O [Example 78]
3.81%	8.12%			Cn1c(=O)c2c(CC(=O)Nc3cc(-c4ccc(Cl)cc4)n[nH]3)cccc2n(C)c1=O [Example 79, N1-[3-(4-Chlorophenyl)-1H,5-pyrazolyl]-2-(1,3-dimethyl-2,4-dioxo-1,2,3,4-tetrahydro-5-quinazolinyl)acetamide]

— US7951814B2, “Quinazolinedione derivatives as TRPA1 modulators” (Glenmark Pharmaceuticals, S.A., priority 2008, dated 2011)
